Earlier results on one substance are cited in publication PMC7156367, “Cell surface processing of the P1 adhesin of Mycoplasma pneumoniae identifies novel domains that bind host molecules” (Scientific Reports, 2020).

On the set-up of this series: method as in PMID 28894125. The following applies: ref [12]; cited from earlier work.

elongation factor Tu [Ef-Tu]: the affinity to heparin entry is given as “strong affinity to heparin”.
